The text below walks through data of paper PMC9223764, “In Vitro Selection and Characterization of HIV-1 Variants with Increased Resistance to LP-40, Enfuvirtide-Based Lipopeptide Inhibitor” (International Journal of Molecular Sciences, 2022).

What all share (type): cell-based
The subject of assay [1] is HIV-1 NL4-3 gp41 N126K pseudovirus. Conditions: Table 2; for IC50: N126K, TZM-bl cells, 48 h, luciferase, mean ± SD, triplicate, repeated three times. The method, then:
(§1) The entry abilities of A15V, L57H, R68G, G86D, C87Y, E119G, and N140S were almost completely lost, corresponding to LP40-V6, LP40-V7, T20-V9, LP40-V3, LP40-V5, LP40-V4, and T20-V5, respectively, so it was determined that these mutation sites might be lethal mutations. […] The differences between the wild-type envelope proteins and serial mutant proteins in mediating membrane fusion were compared using a double-separated protein-based fusion experimental system. […] G20V, A21T, E119G, and Y127H had only an approximately 10% fusion capacity, and L33S, N42D, N42T, and N43S had less than 50% fusion capacity, but N140S had approximately 60% fusion capacity (Figure 6B). […] Among them, we selected the fusion ability of the sixth hour to evaluate the fusion activities of the mutant strains (Figure 6B).
(§2) Viral RNA was extracted from the supernatant, and, after reverse transcription, the cDNA was amplified using PCR. These amplified DNA were connected to the T-Easy vector and transformed to Trans 2-Blue Chemically Competent Cells. These sequences were determined via sequencing. The expression plasmids, which contained different HIV-1NL4-3 Env mutants, were constructed using DNA assembly (NEBuilder® HiFi DNA Assembly Master Mix). In brief, two primers were used to amplify Env, and the other two primers were used to amplify the vector fragment. The products of PCR were purified with a 20–25 bp overlap in the terminal of Env and the vector fragment Env and the vector fragment were added to the DNA assembly master mix at […] for 15 min and then transformed to Trans 2-Blue Chemically Competent Cells. Additionally, a single-point mutation was generated using double-stranded DNA templates and a selection of mutants with a restriction enzyme (DpnI) as described previously. The successful mutations were confirmed via sequencing.
(§3) The infectivity of HIV Env mutants and the inhibitory activities of membrane fusion inhibitors on mutants in TZM-bl cells were measured using a single-cycle infection assay as described previously. Briefly, the HIV pseudovirus was packed using an Env-coding plasmid, and pSG3ΔEnv was co-transfected into HEK293T cells. pSG3ΔEnv encodes an Env-defective, luciferase-expressing HIV-1 genome. After the pseudoviruses were harvested and filtrated, the amount of pseudoviruses was fixed via P24 antigen, and their infectivity was determined in TZM-bl cells. In order to measure the inhibitory activities of the inhibitors, inhibitors diluted serially 3-fold were mixed with an equal volume of pseudoviruses, and then 100 µL 1 × 10^5/mL TZM-bl cells were added to the mixture and incubated at 37 °C with 5% CO2 for 48 h. After that, TZM-bl cells were lysed using reporter lysis buffer, and IC50 values were calculated according to luciferase activity measured by luciferase assay reagents and a luminescence counter (Promega, Madison, WI, USA).

Assay [2] deals with HIV-1 NL4-3 gp41 N42T pseudovirus. Conditions: Table 2; for IC50: N42T, TZM-bl cells, 48 h, luciferase, mean ± SD, triplicate, repeated three times. The protocol: as §1, §2, §3
Assay [3] concerns HIV-1 NL4-3 gp41 N42D pseudovirus. Conditions: Table 2; for IC50: N42D, TZM-bl cells, 48 h, luciferase, mean ± SD, triplicate, repeated three times. The protocol:
as §1, §2, §3

Assay [4] has as its system HIV-1 NL4-3 gp41 A71V pseudovirus. Conditions: Table 2; for IC50: A71V, TZM-bl cells, 48 h, luciferase, mean ± SD, triplicate, repeated three times. The protocol: as §1, §2, §3
Assay [5] deals with HIV-1 NL4-3 gp41 NDQEEDYN pseudovirus. Conditions: Table 3; for IC50: NDQEEDYN (E109N, N113D, E119Q, D121E, N125E, S129D, H132Y, S133N), TZM-bl cells, 48 h, luciferase, means, triplicate, repeated three times. The method, then: (§4) We selected LP-40-induced drug resistance typical point mutations and combination mutation pseudoviruses to evaluate the current representative membrane fusion inhibitors.
as §3

The subject of assay [6] is HIV-1 NL4-3 gp41 NDQEEDYN/L33S/I37T pseudovirus. Conditions: Table 3; for IC50: NDQEEDYN/L33S/I37T, TZM-bl cells, 48 h, luciferase, means, triplicate, repeated three times. The method, then: as §4, §3
The subject of assay [7] is HIV-1 NL4-3 gp41 L33S/V38A/N42T pseudovirus. Conditions: Table 3; for IC50: L33S/V38A/N42T, TZM-bl cells, 48 h, luciferase, means, triplicate, repeated three times. The protocol: as §4, §3
For assay [8], the system named is HIV-1 NL4-3 gp41 L33S/I37T pseudovirus. Conditions: Table 3; for IC50: L33S/I37T, TZM-bl cells, 48 h, luciferase, means, triplicate, repeated three times. The method, then:
as §4, §3

The subject of assay [9] is HIV-1 NL4-3 gp41 NDQEEDYN/L33S/V38A/N42T pseudovirus. Conditions: Table 3; for IC50: NDQEEDYN/L33S/V38A/N42T, TZM-bl cells, 48 h, luciferase, means, triplicate, repeated three times. The protocol:
as §4, §3

Assay [10] concerns HIV-1 NL4-3 gp41 V38A/N42T pseudovirus. Conditions: Table 3; for IC50: V38A/N42T, TZM-bl cells, 48 h, luciferase, means, triplicate, repeated three times. The protocol: as §4, §3

“And” between values parts separate entries of the source, which are not always exact repeats. Identical values can stand only once. Where a SMILES comes first, the peptide text is derived from it. The star is where a group is joined. Palmitoyl = CCCCCCCCCCCCCCCC(=O)*

Usually IC50 stands for the concentration at which inhibition is half-maximal. With `CCCCCCCCCCCCCCCC(=O)NCCCC[C@H](NC(=O)[C@H](CC(=O)O)NC(=O)[C@H](CC(C)C)NC(=O)[C@H](CCC(=O)O)NC(=O)[C@H](CC(C)C)NC(=O)[C@H](CC(C)C)NC(=O)[C@H](CCC(=O)O)NC(=O)[C@H](CCC(N)=O)NC(=O)[C@H](CCC(=O)O)NC(=O)[C@H](CC(N)=O)NC(=O)[C@H](CCCCN)NC(=O)[C@H](CCC(=O)O)NC(=O)[C@H](CCC(N)=O)NC(=O)[C@H](CCC(N)=O)NC(=O)[C@H](CC(N)=O)NC(=O)[C@H](CCC(N)=O)NC(=O)[C@H](CO)NC(=O)[C@H](CCC(=O)O)NC(=O)[C@H](CCC(=O)O)NC(=O)[C@@H](NC(=O)[C@H](CC(C)C)NC(=O)[C@H](CO)NC(=O)[C@H](Cc1c[nH]cn1)NC(=O)[C@@H](NC(=O)[C@H](CC(C)C)NC(=O)[C@H](CO)NC(=O)[C@@H](NC(=O)[C@H](Cc1ccc(O)cc1)NC(C)=O)[C@@H](C)O)[C@@H](C)CC)[C@@H](C)CC)C(N)=O` [LP-40] (Ac-YTSLIHSLIEESQNQQEKNEQELLELDK(Palmitoyl)-NH2), the “Fold change in IC50” value in assay [1] (N126K relative to WT NL4-3) is 9.7 fold and 9.65 fold; in assay [2] (N42T relative to WT NL4-3), 40.18 fold; in [3] (N42D relative to WT NL4-3) it was 3.46 fold; in assay [4] (A71V relative to WT NL4-3) it was 1.37 fold; in assay [5] (NDQEEDYN relative to WT NL4-3) it was 3.67 fold; in [6] (NDQEEDYN/L33S/I37T relative to WT NL4-3), 120.00 fold. The “Fold change in IC50” value in assay [7] (L33S/V38A/N42T relative to WT NL4-3) was 182.67 fold; in [8] (L33S/I37T relative to WT NL4-3), 109.04 fold; in assay [9] (NDQEEDYN/L33S/V38A/N42T relative to WT NL4-3), more than 228.77 fold; in [10] (V38A/N42T relative to WT NL4-3), 149.15 fold. For the same molecule, the IC50 is 304 ± 50.5 nM in assay [1]; 1270 ± 167 nM in [2]; 109 ± 18.4 nM in [3]; 43.2 ± 8.19 nM in [4]; 100 nM in assay [5]; 3280 nM in assay [6]. Besides, the IC50 was 4990 nM in assay [7], 2980 nM in assay [8], more than 6250 nM in assay [9] and 4070 nM in assay [10].

Regarding Enfuvirtide, the 50% inhibitory concentration (IC50) in assay [1] was 117 ± 37.4 nM; in assay [2], 413 ± 82 nM; in assay [3], 164 ± 26.8 nM; in assay [4], 46.5 ± 12.5 nM; in [5], 62.5 nM; in [6], 3790 nM. In addition, the IC50 in assay [7] was 4920 nM; in assay [8], 5850 nM; in [9], 4780 nM; in [10] it was 3350 nM.
